Where two headings read alike, the source gives them in different places.
Biological target: Recombinant human cathepsin S (CatS) (Homo sapiens, UniProt P25774)
Experiment: Recombinant human cathepsin S (CatS) inhibition assay, fluorogenic substrate Z-Valine-Valine-Arginine-AMC;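 also: Baculovirus-expressed CatS in pH 5.0 sodium acetate buffer with DTT and NaCl, fluorescence read each minute over 20 min, inhibition derived from rate slope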

Chain of Recombinant human cathepsin S (CatS) (P25774 115-331): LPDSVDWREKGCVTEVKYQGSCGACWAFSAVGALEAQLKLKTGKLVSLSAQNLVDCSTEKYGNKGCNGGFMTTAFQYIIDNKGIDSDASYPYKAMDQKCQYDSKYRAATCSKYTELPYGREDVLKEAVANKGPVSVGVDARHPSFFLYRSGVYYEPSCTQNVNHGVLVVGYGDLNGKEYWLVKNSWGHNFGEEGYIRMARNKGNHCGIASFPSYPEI

| IC50 | Structure (SMILES) | IC50 (CatS IC50) |
| --- | --- | --- |
| – | C[C@H]1COCCN1CCCn1nc(-c2ccc(Cl)c(C#Cc3ccc4c(c3)CN(C(=O)OC(C)(C)C)CC4)c2)c2c1CCN(S(C)(=O)=O)C2 [Example 467, 1,1-Dimethylethyl 7-({2-chloro-5-[1-{3-[(3S)-3-methylmorpholin-4-yl]propyl}-5-(methylsulfonyl)-4,5,6,7-tetrahydro-1H-pyrazolo[4,3-c]pyridin-3-yl]phenyl}ethynyl)-3,4-dihydroisoquinoline-2(1H)-carboxylate] | 260 nM |
| 190 nM | CS(=O)(=O)N1CCc2c(c(-c3ccc(Cl)c(C#Cc4ccc(CNCc5ccc(Cl)cc5)cc4)c3)nn2CCCN2CC3(COC3)C2)C1 [Example 468, 1-{4-[(2-Chloro-5-{5-(methylsulfonyl)-1-[3-(2-oxa-6-azaspiro[3.3]hept-6-yl)propyl]-4,5,6,7-tetrahydro-1H-pyrazolo[4,3-c]pyridin-3-yl}phenyl)ethynyl]phenyl}-N-[(4-chlorophenyl)methyl]methanamine] | – |
| – | CS(=O)(=O)N1CCc2c(c(-c3ccc(Cl)c(C#Cc4ccc(CNCCO)cc4)c3)nn2CCCN2CCOCC2)C1 [Example 469, 2-({[4-({2-Chloro-5-[5-(methylsulfonyl)-1-(3-morpholin-4-ylpropyl)-4,5,6,7-tetrahydro-1H-pyrazolo[4,3-c]pyridin-3-yl]phenyl}ethynyl)phenyl]methyl}amino)ethanol] | 530 nM |
| 50 nM | CS(=O)(=O)N1CCc2c(c(-c3ccc(Cl)c(C#Cc4ccc(CNC5CCc6ccccc65)cc4)c3)nn2CCCN2CCN(c3ccccn3)CC2)C1 (centres unmarked) [Example 470, N-({4-[(2-Chloro-5-{5-(methylsulfonyl)-1-[3-(4-pyridin-2-ylpiperazin-1-yl)propyl]-4,5,6,7-tetrahydro-1H-pyrazolo[4,3-c]pyridin-3-yl}phenyl)ethynyl]phenyl}methyl)-2,3-dihydro-1H-inden-1-amine] | – |
| 4510 nM | CS(=O)(=O)N1CCc2c(c(-c3ccc(Cl)c(C#CC4CCCCC4)c3)nn2C[C@@H](O)CN2CCC(C3CCNCC3)CC2)C1 [Example 472, (2S)-1-(4,4′-Bipiperidin-1-yl)-3-{3-[4-chloro-3-(cyclohexylethynyl)phenyl]-5-(methylsulfonyl)-4,5,6,7-tetrahydro-1H-pyrazolo[4,3-c]pyridin-1-yl}propan-2-ol] | – |
| – | CS(=O)(=O)N1CCc2c(c(-c3ccc(Cl)c(C#Cc4ccccn4)c3)nn2C[C@@H](O)CN2CCC(C3CCNCC3)CC2)C1 [Example 473, (2S)-1-(4,4′-Bipiperidin-1-yl)-3-{3-[4-chloro-3-(pyridin-2-ylethynyl)phenyl]-5-(methylsulfonyl)-4,5,6,7-tetrahydro-1H-pyrazolo[4,3-c]pyridin-1-yl}propan-2-ol] | 120 nM |
| 430 nM | CS(=O)(=O)N1CCc2c(c(-c3ccc(Cl)c(C#CCc4ccccc4)c3)nn2C[C@@H](O)CN2CCC(C3CCNCC3)CC2)C1 [Example 474, (2S)-1-(4,4′-Bipiperidin-1-yl)-3-{3-[4-chloro-3-(3-phenylprop-1-yn-1-yl)phenyl]-5-(methylsulfonyl)-4,5,6,7-tetrahydro-1H-pyrazolo[4,3-c]pyridin-1-yl}propan-2-ol] | – |
| – | CS(=O)(=O)N1CCc2c(c(-c3ccc(Cl)c(C#Cc4cccnc4)c3)nn2C[C@@H](O)CN2CCC(C3CCNCC3)CC2)C1 [Example 475, (2S)-1-(4,4′-Bipiperidin-1-yl)-3-{3-[4-chloro-3-(pyridin-3-ylethynyl)phenyl]-5-(methylsulfonyl)-4,5,6,7-tetrahydro-1H-pyrazolo[4,3-c]pyridin-1-yl}propan-2-ol] | 180 nM |
| 120 nM | NC(=O)N1CCc2c(c(-c3ccc(Cl)c(CCc4ccc(CNCc5ccc(Cl)cc5)cc4)c3)nn2CCCN2CCOCC2)C1 [Example 476, 3-(4-Chloro-3-{2-[4-({[(4-chlorophenyl)methyl]amino}methyl)phenyl]ethyl}phenyl)-1-(3-morpholin-4-ylpropyl)-1,4,6,7-tetrahydro-5H-pyrazolo[4,3-c]pyridine-5-carboxamide] | – |
| – | NC(=O)N1CCc2c(c(-c3ccc(Cl)c(C#Cc4ccc(CN[C@@H]5CCCc6ccccc65)cc4)c3)nn2CCCN2CCOCC2)C1 [Example 477, 3-{4-Chloro-3-[(4-{[(1R)-1,2,3,4-tetrahydronaphthalen-1-ylamino]methyl}phenyl)ethynyl]phenyl}-1-(3-morpholin-4-ylpropyl)-1,4,6,7-tetrahydro-5H-pyrazolo[4,3-c]pyridine-5-carboxamide] | 100 nM |
| 40 nM | CC(NCc1ccc(C#Cc2cc(-c3nn(CCCN4CCN(c5ccccc5)CC4)c4c3CN(S(C)(=O)=O)CC4)ccc2Cl)cc1)c1ccccc1 (centres unmarked) [Example 478, N-({4-[(2-Chloro-5-{5-(methylsulfonyl)-1-[3-(4-phenylpiperazin-1-yl)propyl]-4,5,6,7-tetrahydro-1H-pyrazolo[4,3-c]pyridin-3-yl}phenyl)ethynyl]phenyl}methyl)-1-phenylethanamine] | – |
| 20 nM | NC(=O)N1CCc2c(c(-c3ccc(Cl)c(CCc4ccc(Cl)cc4)c3)nn2C[C@@H](O)CN2CCC(C3CCNCC3)CC2)C1 [Example 479, 1-[(2S)-3-(4,4′-Bipiperidin-1-yl)-2-hydroxypropyl]-3-{4-chloro-3-[2-(4-chlorophenyl)ethyl]phenyl}-1,4,6,7-tetrahydro-5H-pyrazolo[4,3-c]pyridine-5-carboxamide] | – |
| – | CS(=O)(=O)N1CCc2c(c(-c3ccc(Cl)c(C#Cc4ccc(CNCC(F)(F)F)cc4)c3)nn2CCCN2CCN(c3ccccc3)CC2)C1 [Example 480, N-({4-[(2-Chloro-5-{5-(methylsulfonyl)-1-[3-(4-phenylpiperazin-1-yl)propyl]-4,5,6,7-tetrahydro-1H-pyrazolo[4,3-c]pyridin-3-yl}phenyl)ethynyl]phenyl}methyl)-2,2,2-trifluoroethanamine] | 100 nM |
| 3520 nM | C[C@H]1COCCN1CCCn1nc(-c2ccc(Cl)c(C#Cc3ccc4c(c3)CN(C3CC3)CC4)c2)c2c1CCNC2 [Example 481, 7-{[2-Chloro-5-(1-{3-[(3S)-3-methylmorpholin-4-yl]propyl}-4,5,6,7-tetrahydro-1H-pyrazolo[4,3-c]pyridin-3-yl)phenyl]ethynyl}-2-cyclopropyl-1,2,3,4-tetrahydroisoquinoline] | – |
| – | CS(=O)(=O)N1CCc2c(c(-c3ccc(Cl)c(C#Cc4ccc5cc[nH]c5n4)c3)nn2CCCN2CCOCC2)C1 [Example 482, 3-[4-Chloro-3-(1H-pyrrolo[2,3-b]pyridin-6-ylethynyl)phenyl]-5-(methylsulfonyl)-1-(3-morpholin-4-ylpropyl)-4,5,6,7-tetrahydro-1H-pyrazolo[4,3-c]pyridine] | 180 nM |
| 140 nM | CS(=O)(=O)N1CCc2c(c(-c3ccc(Cl)c(C#Cc4ccc5c(c4)CC(C(=O)N4CCOCC4)NC5)c3)nn2CCCN2CCOCC2)C1 (centres unmarked) [Example 483, 6-({2-Chloro-5-[5-(methylsulfonyl)-1-(3-morpholin-4-ylpropyl)-4,5,6,7-tetrahydro-1H-pyrazolo[4,3-c]pyridin-3-yl]phenyl}ethynyl)-3-(morpholin-4-ylcarbonyl)-1,2,3,4-tetrahydroisoquinoline] | – |
| 180 nM | CS(=O)(=O)N1CCc2c(c(-c3ccc(Cl)c(C#Cc4ccc5c(c4)CC(C(=O)N4CCCC4)NC5)c3)nn2CCCN2CCOCC2)C1 (centres unmarked) [Example 484, 6-({2-Chloro-5-[5-(methylsulfonyl)-1-(3-morpholin-4-ylpropyl)-4,5,6,7-tetrahydro-1H-pyrazolo[4,3-c]pyridin-3-yl]phenyl}ethynyl)-3-(pyrrolidin-1-ylcarbonyl)-1,2,3,4-tetrahydroisoquinoline] | – |
| – | CN1CCN(C(=O)[C@@H]2Cc3ccc(C#Cc4cc(-c5nn(CCCN6CCOCC6)c6c5CN(S(C)(=O)=O)CC6)ccc4Cl)cc3CN2)CC1 [Example 485, (3S)-7-({2-Chloro-5-[5-(methylsulfonyl)-1-(3-morpholin-4-ylpropyl)-4,5,6,7-tetrahydro-1H-pyrazolo[4,3-c]pyridin-3-yl]phenyl}ethynyl)-3-[(4-methylpiperazin-1-yl)carbonyl]-1,2,3,4-tetrahydroisoquinoline] | 50 nM |
| 30 nM | CS(=O)(=O)N1CCc2c(c(-c3ccc(Cl)c(C#Cc4ccc5c(c4)CN[C@H](C(=O)N4CCCCC4)C5)c3)nn2CCCN2CCOCC2)C1 [Example 486, (3S)-7-({2-Chloro-5-[5-(methylsulfonyl)-1-(3-morpholin-4-ylpropyl)-4,5,6,7-tetrahydro-1H-pyrazolo[4,3-c]pyridin-3-yl]phenyl}ethynyl)-3-(piperidin-1-ylcarbonyl)-1,2,3,4-tetrahydroisoquinoline] | – |
| – | NC(=O)N1CCc2c(c(-c3ccc(Cl)c(C#Cc4ccc(CNCc5cccc(Cl)c5)cc4)c3)nn2CCCN2CCSCC2)C1 [Example 487, 3-(4-Chloro-3-{[4-({[(3-chlorophenyl)methyl]amino}methyl)phenyl]ethynyl}phenyl)-1-(3-thiomorpholin-4-ylpropyl)-1,4,6,7-tetrahydro-5H-pyrazolo[4,3-c]pyridine-5-carboxamide] | 60 nM |
| – | NC(=O)N1CCc2c(c(-c3ccc(Cl)c(C#Cc4ccc(CNCc5ccccc5Cl)cc4)c3)nn2CCCN2CCSCC2)C1 [Example 488, 3-(4-Chloro-3-{[4-({[(2-chlorophenyl)methyl]amino}methyl)phenyl]ethynyl}phenyl)-1-(3-thiomorpholin-4-ylpropyl)-1,4,6,7-tetrahydro-5H-pyrazolo[4,3-c]pyridine-5-carboxamide] | 140 nM |
| – | CS(=O)(=O)N1CCc2c(c(-c3ccc(Cl)c(C#Cc4ccc5c(c4)CNCCC5)c3)nn2CCCN2CCOCC2)C1 [Example 489, 8-({2-Chloro-5-[5-(methylsulfonyl)-1-(3-morpholin-4-ylpropyl)-4,5,6,7-tetrahydro-1H-pyrazolo[4,3-c]pyridin-3-yl]phenyl}ethynyl)-2,3,4,5-tetrahydro-1H-2-benzazepine] | 480 nM |
| – | CN(Cc1ccc(Cl)cc1)Cc1ccc(C#Cc2cc(-c3nn(CCCN4CCN(c5ccccc5)CC4)c4c3CN(S(C)(=O)=O)CC4)ccc2Cl)cc1 [Example 490, 1-{4-[(2-Chloro-5-{5-(methylsulfonyl)-1-[3-(4-phenylpiperazin-1-yl)propyl]-4,5,6,7-tetrahydro-1H-pyrazolo[4,3-c]pyridin-3-yl}phenyl)ethynyl]phenyl}-N-[(4-chlorophenyl)methyl]-N-methylmethanamine] | 70 nM |
